According to the NIST ThermoML archive (doi:10.1016/j.jct.2016.07.020):

Assay: mn = molality of the nth substance listed, in mol/kg
Conditions: 101.3 kPa, Liquid, Capillary tube (Ostwald / Ubbelohde) method

OC[C@H]1OC(O)C[C@@H](O)[C@@H]1O (stereo partly drawn) [2-deoxy-D-glucose] + O
viscosity [mPa·s]
Conditions	m1 = 0.04	m1 = 0.06	m1 = 0.0797	m1 = 0.1001	m1 = 0.1201	m1 = 0.1399
288.15 K	1.161	1.171	1.18	1.191	1.201	1.213
298.15 K	0.907	0.913	0.919	0.928	0.936	0.945
308.15 K	0.73	0.736	0.742	0.749	0.754	0.761
318.15 K	0.605	0.609	0.615	0.619	0.624	0.629

O=C[C@H](O)[C@@H](O)[C@@H](O)[C@H](O)CO [(+)-galactose] + O
viscosity [mPa·s]
Conditions	m1 = 0.0402	m1 = 0.0601	m1 = 0.0792	m1 = 0.0992	m1 = 0.1199	m1 = 0.139	m1 = 0.1594	m1 = 0.1793
288.15 K	1.158	1.168	1.179	1.19	1.203	1.214	1.224	1.237
298.15 K	0.905	0.913	0.92	0.929	0.938	0.945	0.953	0.961
308.15 K	–	0.737	0.743	0.749	0.755	0.76	0.766	0.773
318.15 K	0.606	0.611	0.615	0.618	0.624	0.626	0.631	0.635

O=C[C@H](O)[C@@H](O)[C@H](O)[C@H](O)CO [D-glucose] + O
viscosity [mPa·s]
Conditions	m1 = 0.04	m1 = 0.0599	m1 = 0.0797	m1 = 0.0999	m1 = 0.1197	m1 = 0.14	m1 = 0.1598	m1 = 0.1797
288.15 K	1.161	–	1.181	1.193	1.204	1.216	1.227	1.241
298.15 K	0.907	0.915	0.924	0.932	0.94	0.947	0.954	0.961
308.15 K	0.733	0.737	0.744	0.751	0.756	0.762	0.768	0.774
318.15 K	0.606	0.61	0.614	0.62	0.624	0.629	0.636	0.64

O=C[C@H](O)[C@@H](O)[C@H](O)CO [D-xylose] + O
viscosity [mPa·s]
Conditions	m1 = 0.0399	m1 = 0.0601	m1 = 0.0797	m1 = 0.0993	m1 = 0.1195	m1 = 0.1391	m1 = 0.1583	m1 = 0.1783
288.15 K	1.155	1.163	1.173	1.181	1.188	1.197	1.206	1.214
298.15 K	0.901	0.909	0.914	0.92	0.927	0.932	0.937	0.944
308.15 K	0.727	0.733	0.739	0.742	0.747	0.751	0.756	0.762
318.15 K	0.603	0.607	0.61	0.614	0.618	0.623	0.626	0.63

O=C1O[C@H]([C@@H](O)CO)C(O)=C1O [L-ascorbic acid] + O
viscosity [mPa·s]
Conditions	288.15 K	298.15 K	308.15 K	318.15 K
m1 = 0.05	1.163	0.91	0.732	0.605
m1 = 0.15	1.21	0.944	0.759	0.625
m1 = 0.25	1.257	0.979	0.787	0.646
m1 = 0.35	1.305	1.017	0.813	0.669

OC[C@@H](O)[C@H](O)[C@H](O)[C@@H](O)CO [dulcitol] + O
viscosity [mPa·s]
Conditions	m1 = 0.04	m1 = 0.0603	m1 = 0.0797	m1 = 0.1002	m1 = 0.1196	m1 = 0.14	m1 = 0.1597	m1 = 0.1795
288.15 K	1.161	1.172	1.183	1.191	1.202	1.213	1.221	1.229
298.15 K	0.904	0.912	0.919	0.926	0.933	0.939	0.948	0.953
308.15 K	0.73	0.736	0.741	0.746	0.751	0.756	0.761	0.766
318.15 K	0.602	0.607	0.61	0.614	0.617	0.623	0.626	0.628

CO[C@H]1O[C@H](CO)[C@@H](O)[C@H](O)[C@H]1O [methyl-α-D-glucopyranoside] + O
viscosity [mPa·s]
Conditions	m1 = 0.0397	m1 = 0.06	m1 = 0.08	m1 = 0.0999	m1 = 0.1191	m1 = 0.1402	m1 = 0.1599	m1 = 0.1801
288.15 K	1.159	1.172	1.183	1.194	1.206	1.218	1.23	1.241
298.15 K	0.906	0.916	0.925	0.931	0.94	0.948	0.956	0.964
308.15 K	0.732	0.739	0.745	0.751	0.757	0.764	0.77	0.777
318.15 K	0.606	0.611	0.616	0.621	0.625	0.631	0.636	0.64

OC[C@@H](O)[C@H](O)[C@@H](O)CO [xylitol] + O
viscosity [mPa·s]
Conditions	m1 = 0.0399	m1 = 0.0599	m1 = 0.08	m1 = 0.0999	m1 = 0.1196	m1 = 0.1396	m1 = 0.1593	m1 = 0.1801
288.15 K	1.16	1.17	1.179	1.188	1.197	1.206	1.214	1.223
298.15 K	0.905	0.913	0.919	0.926	0.933	0.939	0.947	0.954
308.15 K	0.73	0.736	0.742	0.746	0.751	0.757	0.762	0.766
318.15 K	0.604	0.608	0.612	0.616	0.621	0.625	0.63	0.634
